Article PMC8839659, “Evolution of DIMBOA-Glc O-Methyltransferases from Flavonoid O-Methyltransferases in the Grasses” (Molecules, 2022)

Legend:
Test in all cases: LC-MS/MS product formation
Format in all cases: biochemical
[1] = molecular target: T1, ZmBX11 (Zea mays, UniProt S5RK83); details: SAM cosubstrate 100 µM; 20 µM substrate; pH 7; 25 °C; 1 h; product isokaempferide
T1 construct: pASK-IBA37plus, N-terminal His tag, E. coli BL21(DE3), purified
T1 sequence (S5RK83 1-375): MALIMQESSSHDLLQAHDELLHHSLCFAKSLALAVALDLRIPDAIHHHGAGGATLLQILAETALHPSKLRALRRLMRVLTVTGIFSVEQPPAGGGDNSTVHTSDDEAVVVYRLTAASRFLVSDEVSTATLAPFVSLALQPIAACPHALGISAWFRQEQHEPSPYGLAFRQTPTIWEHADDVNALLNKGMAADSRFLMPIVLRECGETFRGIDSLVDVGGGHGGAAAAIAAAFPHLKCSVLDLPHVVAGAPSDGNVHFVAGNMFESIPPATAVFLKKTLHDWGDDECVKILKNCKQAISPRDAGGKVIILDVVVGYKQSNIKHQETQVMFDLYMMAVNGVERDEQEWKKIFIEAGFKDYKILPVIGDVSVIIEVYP

[2] = molecular target: T2, ZmBX12 (Zea mays, UniProt S5S8L0); details: SAM cosubstrate 100 µM, 20 µM substrate, pH 7, 25 °C, 1 h
T2 construct: pASK-IBA37plus, N-terminal His tag, E. coli BL21(DE3), purified
T2 sequence (S5S8L0 1-370): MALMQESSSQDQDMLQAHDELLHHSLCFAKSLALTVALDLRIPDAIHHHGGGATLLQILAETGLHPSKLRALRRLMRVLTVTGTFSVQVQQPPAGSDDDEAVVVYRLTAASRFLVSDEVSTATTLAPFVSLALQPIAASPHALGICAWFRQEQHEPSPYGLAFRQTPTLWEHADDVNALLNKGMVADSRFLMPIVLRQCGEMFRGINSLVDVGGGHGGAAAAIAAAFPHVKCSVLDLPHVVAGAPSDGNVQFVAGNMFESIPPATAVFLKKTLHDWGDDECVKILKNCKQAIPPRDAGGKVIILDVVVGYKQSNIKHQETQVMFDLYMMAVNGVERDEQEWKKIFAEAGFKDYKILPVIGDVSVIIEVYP

[3] = molecular target: T3, SbFOMT2 (Sorghum bicolor, UniProt C5WYJ6); details: SAM cosubstrate 100 µM; 20 µM substrate; pH 7; 25 °C; 1 h; flavonoid 5-O-methylation, trace isokaempferide
T3 construct: gene SORBI_3001G354400; full-length ORF from leaf cDNA, in pET100/D-TOPO or pASK-IBA37plus, N-terminal His tag, E. coli BL21(DE3), purified
T3 sequence (C5WYJ6 1-365): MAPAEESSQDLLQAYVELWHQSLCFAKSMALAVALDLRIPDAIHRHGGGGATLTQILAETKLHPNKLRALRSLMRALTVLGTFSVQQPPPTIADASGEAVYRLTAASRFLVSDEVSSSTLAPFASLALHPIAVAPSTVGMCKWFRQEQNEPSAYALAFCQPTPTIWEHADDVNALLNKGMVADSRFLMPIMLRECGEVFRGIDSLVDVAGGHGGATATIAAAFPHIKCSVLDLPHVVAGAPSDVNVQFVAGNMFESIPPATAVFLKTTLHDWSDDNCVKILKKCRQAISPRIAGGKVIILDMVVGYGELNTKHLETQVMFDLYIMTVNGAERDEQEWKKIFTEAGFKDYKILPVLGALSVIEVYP

[4] = molecular target: T4, ZnBX10 (Zea nicaraguensis, UniProt Z9J3M6HYI4); details: SAM cosubstrate 100 µM, 20 µM substrate, pH 7, 25 °C, 1 h
T4 construct: full-length ORF, codon-optimized synthetic gene in pET100/D-TOPO, N-terminal His tag, E. coli BL21(DE3), purified
T4 sequence (Z9J3M6HYI4 1-373): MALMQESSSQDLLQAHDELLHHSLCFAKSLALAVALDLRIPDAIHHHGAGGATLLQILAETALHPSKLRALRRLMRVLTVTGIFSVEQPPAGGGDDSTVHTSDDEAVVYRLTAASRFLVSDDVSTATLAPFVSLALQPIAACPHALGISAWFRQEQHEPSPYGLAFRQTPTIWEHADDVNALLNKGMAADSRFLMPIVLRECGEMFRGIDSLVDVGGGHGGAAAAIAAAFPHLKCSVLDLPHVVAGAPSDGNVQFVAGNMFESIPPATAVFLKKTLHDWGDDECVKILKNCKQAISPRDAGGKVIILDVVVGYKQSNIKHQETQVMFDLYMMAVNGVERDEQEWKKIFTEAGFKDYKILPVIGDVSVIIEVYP

[5] = molecular target: T5, ZmBX10 (Zea mays, UniProt S5S768); details: SAM cosubstrate 100 µM; 20 µM substrate; pH 7; 25 °C; 1 h; product isokaempferide
T5 construct: pASK-IBA37plus, N-terminal His tag, E. coli BL21(DE3), purified
T5 sequence (S5S768 1-375): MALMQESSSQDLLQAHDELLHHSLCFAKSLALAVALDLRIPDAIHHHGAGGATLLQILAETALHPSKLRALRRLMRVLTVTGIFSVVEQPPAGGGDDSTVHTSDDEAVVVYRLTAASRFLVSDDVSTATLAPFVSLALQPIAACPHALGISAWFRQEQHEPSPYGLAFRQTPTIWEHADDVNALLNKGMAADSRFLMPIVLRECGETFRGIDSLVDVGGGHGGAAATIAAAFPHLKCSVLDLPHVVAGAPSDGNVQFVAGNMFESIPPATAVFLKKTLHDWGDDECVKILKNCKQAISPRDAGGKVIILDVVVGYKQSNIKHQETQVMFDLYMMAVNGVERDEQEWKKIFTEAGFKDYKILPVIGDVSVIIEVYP

[6] = molecular target: T6, ZmBX14 (Zea mays, UniProt A0A1P8SEU3); details: SAM cosubstrate 100 µM, 20 µM substrate, pH 7, 25 °C, 1 h
T6 construct: pASK-IBA37plus, N-terminal His tag, E. coli BL21(DE3), purified
T6 sequence (A0A1P8SEU3 1-366): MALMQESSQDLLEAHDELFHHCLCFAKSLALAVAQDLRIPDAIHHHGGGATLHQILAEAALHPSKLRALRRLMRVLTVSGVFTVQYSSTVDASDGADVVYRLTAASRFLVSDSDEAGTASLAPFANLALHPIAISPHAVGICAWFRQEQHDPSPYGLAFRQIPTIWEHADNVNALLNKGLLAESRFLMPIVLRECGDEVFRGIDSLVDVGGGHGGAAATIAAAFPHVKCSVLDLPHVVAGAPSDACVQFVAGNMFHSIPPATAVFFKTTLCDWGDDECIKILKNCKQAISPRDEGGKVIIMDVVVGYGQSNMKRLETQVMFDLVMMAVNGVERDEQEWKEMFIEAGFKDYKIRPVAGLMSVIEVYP

[7] = product HDMBOA-Glc, positive control

Compound | LC-MS/MS product formation [1] | LC-MS/MS product formation ([2]; product isokaempferide) | LC-MS/MS product formation [3] | LC-MS/MS product formation ([4]; product isokaempferide) | LC-MS/MS product formation [5] | LC-MS/MS product formation ([6]; lowest activity of the maize BX OMTs) | LC-MS/MS product formation [2, 7] | LC-MS/MS product formation ([4]; product HDMBOA-Glc) | LC-MS/MS product formation [6, 7]
O=c1c(O)c(-c2ccc(O)cc2)oc2cc(O)cc(O)c12 [kaempferol] | ZmBX10-12 and ZnBX10 produced substantial amounts of the 3-O-methylated derivative isokaempferide | with ZmBX12 as the most active OMT, followed by ZmBX10, ZmBX11, and ZmBX14 | ZmFOMT2 and SbFOMT2 produced only trace amounts of this compound | ZmBX10-12 and ZnBX10 produced substantial amounts of the 3-O-methylated derivative isokaempferide | ZmBX10-12 and ZnBX10 produced substantial amounts of the 3-O-methylated derivative isokaempferide | with ZmBX12 as the most active OMT, followed by ZmBX10, ZmBX11, and ZmBX14 | – | – | –
COc1ccc2c(c1)O[C@H](O[C@@H]1O[C@H](CO)[C@@H](O)[C@H](O)[C@H]1O)C(=O)N2O [DIMBOA-Glc, 2,4-dihydroxy-7-methoxy-1,4-benzoxazin-3-one glucoside] | – | – | – | – | – | – | Besides ZmBX14 and ZmBX12, ZnBX10 also converted DIMBOA-Glc to HDMBOA-Glc | ZnBX10 also converted DIMBOA-Glc to HDMBOA-Glc | Besides ZmBX14 and ZmBX12, ZnBX10 also converted DIMBOA-Glc to HDMBOA-Glc
